# Key:
# [1] = test system: CVI-induced proliferation of CFSC; assay: Inhibition of CVI-induced proliferation by α3(VI)-derived 30-mer peptides, [3H]-thymidine incorporation; format: cell-based, rat; details: serum-starved CFSC; 100-fold molar excess of 30-mer peptide compared to CVI; 24 h; n = 4; p<0.05
# Method: (§1) 5x10^3CFSC in 100 μl 10% FBS were seeded into a 96-well flat-bottom tissue culture plate (Nunc, Roskilde, Denmark). After 24 hours, medium was completely removed, and cells were rinsed with 200 μl phosphate-buffered saline and 100 μl standard medium containing only 0.25% FBS were added. Cells were cultured for additional 24 h prior to treatment. Synchronized microcultures in 96-well plates were treated for 2 hours in reduction medium. When appropriate, the reduction medium was supplemented with 40 mg/l of α1(VI), α2(VI) or α3(VI). Then, 30 mg/l CVI or CI as control were added and cells were incubated for 24 h after which [^3H]-thymidine was added for additional 24 h. To assess effects of α3(VI)-derived 30-mer peptides on CVI-induced proliferation of CFSC, the reduction medium was supplemented with a 100-fold molar excess of the respective 30-mer peptides compared to CVI. [^3H]-thymidine incorporation was measured as described before. Cells treated with 150 mmol/l HAc or grown in 10% FBS served as negative and positive controls, respectively. During the last 4 hours of treatment, all cultures received 18.5 kBq [^3H]-thymidine (Amersham, Freiburg, Germany). Cells were fixed with 10% trichloroacetic acid and lysed by 200 mmol/l NaOH. After neutralization with 800 mmol/l HCl, lysates were collected to a glassfibre mat and the de-novo DNA synthesis was assessed by liquid scintillation (LKB Wallac, Bromma, Sweden) and the radioactive decay was counted (for) a minute (cpm).
# primary rat HSCs = assay: [3H]-thymidine incorporation, de-novo DNA synthesis; format: cell-based; details: primary rHSCs; CVI at 10 μg/ml; within 24 hours; three independent experiments
# primary rat HSC [2] = assay: FACS analysis of apoptosis (propidium iodide DNA content); format: cell-based; details: serum-starved primary rat HSC; text: within 24 hours, Fig 1C legend: 48 h; propidium iodide; three independent experiments
# Method: Activated HSC (third passage) were serum starved for 24 h in standard medium without FBS (starving medium), followed by dissociation with 500 μl 0.05% trypsin-EDTA (Biochrom, Berlin, Germany) and neutralization with 30 ml starving medium containing 1 g/l soybean trypsin inhibitor and 1 g/l ovalbumin. Alternatively, cells were scraped carefully with a cell-scraper (Costar, Cambridge, MA, USA) to exclude any potential effect of trypsin. After centrifugation at 800 x g for 10 min, cells were washed twice with 20 ml PBS (w/o Ca^2+, Mg^2+; Biochrom, Berlin, Germany), resuspended in starving medium and plated at a density of 1.5-2x10^6 in 1.7 ml starving medium in 6-well plates (NUNC, Wiesbaden, Germany). Cells were then treated with starving medium, soluble CI or CVI (both at a final concentration of 30 mg/l), or 10% FBS. For quantification of spreading, cells that had attached were counted 12 hours after plating and spreading efficiency was determined as percentage of plated cells in each group. De-novo DNA synthesis and apoptosis were assessed by morphological criteria, Cell death detection ELISA and FACS analysis as described below. […] After blocking the cells 1h with DMEM+1% FBS, the cells were incubated with primary antibodies against a-actin (Sigma-Aldrich, Taufkirchen, Germany, #A2547; dilution 1:200) and GFAP (Sigma-Aldrich, #G9269; dilution 1:20) followed by a washing step with PBS and the incubation with fluorescence-labeled secondary antibodies (Alexa Fluor 546 & Alexa Fluor 488, Molecular Probes, Eugene, USA, #A11030 & #A11034; dilution 1:100). […] Cells were analyzed by fluorescence microscopy (Zeiss, Jena, Germany; Kodak Ektachrome P1600 and a quantitative staining analysis was performed using Image J software (version 1.50i; National Institutes of Health, Bethesda, […], USA).
# 10^5 of freshly set cells were treated with starving medium, CI, CVI or 10% FBS for 24 or 48 hours as described before. […] Fixed cells were stained with propidium iodide (50 mg/l) in a final volume of 1 ml before being subjected to fluorescence activated cell sorting (FACS) analysis.
# [3] = test system: Bax and Bcl-2 in activated HSCs; assay: Western-blot analysis of Bax and Bcl-2; format: cell-based, rat; details: 24 hours culture after serum starvation; densitometry; three independent experiments
# Method: Dislodged cells were centrifuged at 800 x g/10 min and lysed with 100 μl lysis buffer. The protein concentration was determined using NanoOrange® Protein Quantitation Kit (Life Technologies) according to the manufacturer’s instructions. Briefly, protein solutions were mixed with the diluted NanoOrange reagent in 1.5 ml polypropylene tubes and heated at 95°C for 10 min in a thermomixer (Peqlab, Erlangen, Germany). Tubes were centrifuged and 200 μl of each sample were transferred to a black 96 well flat-bottom plate (Greiner BioOne, Frickenhausen, Germany). The emitted fluorescence was assessed at 570 nm in a SpectraMax Gemini EM (Molecular Devices, Biberach an der Riß, Germany). Protein concentrations were calculated from a bovine serum albumin standard curve. Equivalent amounts (10–50 μg) of protein were used in […]. Sample buffer (1:1) was added and the aliquots (20 μl final volume) were boiled for 5 min and subjected to 12% SDS-PAGE. After blocking for 1 h at room temperature in 10 mmol Tris-HCl, pH 7.5, 100 mmol NaCl, containing 0.1% Tween 20 and 3% bovine serum albumine (BSA), nitrocellulose-membranes were incubated either with polyclonal rabbit anti-rat antibodies to Bax (1:1000, sc-493), Bcl-2 (1:1000, sc783, both Santa Cruz, Santa Cruz, USA), α-actin (1:4000, A2547, Sigma) or β-actin (1:10,000, A5441, Sigma). Membranes were then washed in 10 mmol Tris-HCl, 100 mmol NaCl, 0.1% Tween 20, pH 7.5, and incubated with anti-rabbit IgG coupled to peroxidase (1:1000, A4416, Sigma) for 1 h at room temperature or directly developed (RC20H). Bands were detected with the ECL chemiluminescence reagent (Amersham-Pharmacia, Freiburg, Germany). After stripping in 0.1 M glycin-HCl, pH 2, for 20 min at room temperature, membranes were reprobed with appropriate primary and secondary antibodies. Band intensities were analyzed by densitometry and normalized to β-actin.
# primary rat HSC [4] = assay: Cell Death Detection ELISA (oligonucleosomal DNA fragments); format: cell-based; details: OD of sample divided by OD of 10% FBS group, three independent experiments
# Method: 10^5 cells were seeded in 6-well plates and treated with starving medium or medium plus CI, CVI or 10% FBS. After 24 or 48 h floating and adherent cells were pooled, and lysed with 500 μl of 1% SDS, 10 mM Tris, pH 7.4 (lysis buffer), for 30 min at 4°C. Lysed cells were transferred to 1.5 ml Eppendorf tubes and centrifuged at 13,000 rpm for 20 min, to separate low molecular weight DNA (oligonucleosome-sized fragments derived from apoptotic cells) from high molecular weight DNA (from viable cells). 400 μl of the supernatant containing oligonucleosomes were transferred to another Eppendorf tube and diluted 1:5 with lysis buffer. 100 μl aliquots were used for the Cell Death Detection ELISA, which was performed according to the manufacturer’s instructions (Boehringer Mannheim, Germany). In brief, antibodies against histones were coated onto 96-wells, 100 μl lysate-samples containing oligonucleotides and histones were added and incubated for one hour. After washing, wells were incubated with anti-double strand DNA antibody coupled to peroxidase for one hour. After reaction with peroxidase substrate, absorbance was measured at 405 nm using an ELISA reader. Background values (lysis-buffer alone) were subtracted, and results are shown as enrichment factor [enrichment factor: OD (optical density) of the sample (apoptotic cells) divided by the OD of the corresponding control (viable cells, 10% FBS-group). A defined positive control was prepared using a hypertonic buffer, containing 10 mM Tris, 400 mM NaCl, 5 mM CaCl2 and 10 mM MgCl2, instead of starving medium.
# [5] = test system: 10% FBS-induced proliferation of HSC; assay: Inhibition of 10% FBS-induced proliferation by alpha single chains, [3H]-thymidine incorporation; format: cell-based, rat; details: cells grown in 10% FBS, Fig 4A
# Method: as §1
# CFSC = assay: Fibrosis-associated gene expression, quantitative real-time PCR; format: cell-based, rat
# Method: 30 mg/l CVI, 133 mg/l of the monomeric alpha chains of CVI and/or TGF-β (2 ng/ml) were added after 24 h. […] Reverse transcribed complementary DNA templates were amplified by quantitative real-time polymerase chain reaction (PCR; Roche Diagnostics, Mannheim, Germany) using fluorogenic probes labeled with 6-carboxy-fluorescein and 6-carboxy-tetramethylrhodamin (Sigma- Genosys, Steinheim, Germany) and primer pairs (Invitrogen, Karlsruhe, Germany) specific for fibrosis-associated genes (for sequences see S2 Table). Gene expressions were normalized to glyceraldehyde phosphate dehydrogenase (GAPDH).
# [6] = test system: CVI-induced proliferation of HSC; assay: Inhibition of CVI-induced proliferation by alpha single chains, [3H]-thymidine incorporation; format: cell-based, rat; details: 40 mg/l single chain, then 30 mg/l CVI; 24 h; primary rHSCs, n = three; Fig 4A legend: CFSC, n = 4
# Method: as §1
# [7] = CFSC, medium containing 0.2% FBS, S3 Fig, one out of two independent experiments
substance,measurement,setting,value
"GAPGERGRTGPLGRKGEPGEPGPKGGIGNP [B6, α3(VI)-derived synthetic 30-mer peptide]",inhibition of CVI-induced proliferation,[1],no or weaker inhibitory activities
CI: Human collagen I isolated from placentas by pepsin digestion; served as a control,de-novo DNA synthesis ([3H]-thymidine incorporation),primary rat HSCs,little DNA incorporation
same,percentage of apoptotic cells (FACS),primary rat HSC [2],80%
same,Bax to Bcl-2 ratio,[3],7.0
same,enrichment factor of oligonucleosomal fragments,primary rat HSC [4]; after 24 hours,5
same,enrichment factor of oligonucleosomal fragments,primary rat HSC [4]; after 48 hours,30
"DGDKGLPGSSGEKGNPGRRGDKGPRGEKGE [A5, α3(VI)-derived synthetic 30-mer peptide]",inhibition of CVI-induced proliferation,[1],no or weaker inhibitory activities
"RDGVGSEGRRGKKGERGFPGYPGPKGNPGE [C2, α3(VI)-derived synthetic 30-mer peptide]",inhibition of CVI-induced proliferation,[1],strong growth inhibitory effects
"VNGTQGFQGCPGQRGVKGSRGFPGEKGEVG [A3, α3(VI)-derived synthetic 30-mer peptide]",inhibition of CVI-induced proliferation,[1],strong growth inhibitory effects
"PPGLIGEQGISGPRGSGGARGAPGERGRTG [B5, α3(VI)-derived synthetic 30-mer peptide]",inhibition of CVI-induced proliferation,[1],no or weaker inhibitory activities
α1(VI): monomeric alpha 1 single chain of collagen VI isolated from human placentas,effect on 10% FBS-induced proliferation,[5],had no effect
same,"effect on CVI-induced expression of αSMA, CI and TGF-β","CFSC; serum-starved CFSC, 30 mg/l CVI plus 133 mg/l monomeric alpha chain, 24 h, n = 4",some inhibitory effects
same,inhibition of DNA synthesis in the presence of CVI,[6],did not show any effect
"GNPGQDSQERGPKGETGDLGPMGVPGRDGV [B1, α3(VI)-derived synthetic 30-mer peptide]",inhibition of CVI-induced proliferation,[1],strong growth inhibitory effects
"GIRGRRGNSGPPGIVGQKGRPGYPGPAGPR [C4, α3(VI)-derived synthetic 30-mer peptide]",inhibition of CVI-induced proliferation,[1],strong growth inhibitory effects
"GFPGEKGEVGEIGLDGLDGEDGDKGLPGSS [A4, α3(VI)-derived synthetic 30-mer peptide]",inhibition of CVI-induced proliferation,[1],strong growth inhibitory effects
"DKGPRGEKGERGDVGIRGDPGNPGQDSQER [A6, α3(VI)-derived synthetic 30-mer peptide]",inhibition of CVI-induced proliferation,[1],no or weaker inhibitory activities
"DGYRGYPGDEGGPGERGPPGVNGTQGFQGC [A2, α3(VI)-derived synthetic 30-mer peptide]",inhibition of CVI-induced proliferation,[1],no or weaker inhibitory activities
TGF-β [reference compound],time after which CI expression increased,CFSC; [7],~ 8 h
same,time of maximum CI expression,CFSC; [7],~ 24 h
same,reduction of the expression of MMP-3,"CFSC; serum-starved CFSC, 24 h, TGF-β 2 ng/ml, CVI 30 mg/l, qPCR normalized to GAPDH",~ 70%

# — publication PMC8412337, “Alpha-single chains of collagen type VI inhibit the fibrogenic effects of triple helical collagen VI in hepatic stellate cells” (PLoS ONE, 2021)
